Assay results published in patent publication US11180462B2, “Microbiocidal oxadiazole derivatives” (SYNGENTA PARTICIPATIONS AG, priority 2015, dated 2021).

test system: Glomerella lagenarium (Colletotrichum lagenarium); experiment: Fungicidal activity against Glomerella lagenarium (Colletotrichum lagenarium) liquid culture / cucumber / preventative (anthracnose); type: cell-based; details: Colletotrichum orbiculare; 20 ppm in the applied formulation; liquid culture (PDB), growth inhibition measured photometrically after 3 to 4 days; compared to untreated control; read-out: disease control
How it was run: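 Percent activity against the untreated check was derived from photometric growth measurements made 2 to 7 days after conidia in potato dextrose broth were combined with compound at 20 ppm. Cultures were kept dark at 24 °C and 96% humidity.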

Structure (SMILES) | inhibition of growth at 20 ppm
CON(C(=O)C=CC(C)=O)C(C)c1ccc(-c2noc(C(F)(F)F)n2)cc1 (stereo not drawn) [Compound 1.272, N-methoxy-4-oxo-N-[1-[4-[5-(trifluoromethyl)-1,2,4-oxadiazol-3-yl]phenyl]ethyl]pent-2-enamide] | ≥ 80%
COCCCC(=O)N(Cc1ccc(-c2noc(C(F)(F)F)n2)cc1)OCC=C(Cl)Cl [Compound 1.543, N-(3,3-dichloroallyloxy)-4-methoxy-N-[[4-[5-(trifluoromethyl)-1,2,4-oxadiazol-3-yl]phenyl]methyl]-butanamide] | ≥ 80%
C#CCN(Cc1ccc(-c2noc(C(F)(F)F)n2)cc1)C(=O)Cc1ccccc1OC [Compound 1.179, 2-(2-methoxyphenyl)-N-prop-2-ynyl-N-[[4-[5-(trifluoromethyl)-1,2,4-oxadiazol-3-yl]phenyl]methyl]-acetamide] | ≥ 80%

test system: Puccinia recondita f. Sp. Tritici; experiment: Fungicidal activity against Puccinia recondita f. sp. tritici / wheat / leaf disc preventative (brown rust); type: in vivo; details: foliar, 200 ppm in the applied formulation, wheat leaf segments, preventative, compared to untreated control leaf disks, read-out: disease control
Description: Leaf disks or leaf segments of various plant species are cut from plants grown in a greenhouse. The cut leaf disks or segments are placed in multiwell plates (24-well format) onto water agar. The leaf disks are sprayed with a test solution before (preventative) or after (curative) inoculation. Compounds to be tested are prepared as DMSO solutions (max. 10 mg/ml) which are diluted to the appropriate concentration with 0.025% Tween20 just before spraying. The inoculated leaf disks or segments are incubated under defined conditions (temperature, relative humidity, light, etc.) according to the respective test system. A single evaluation of disease level is carried out 3 to 14 days after inoculation, depending on the pathosystem. Percent disease control relative to the untreated check leaf disks or segments is then calculated.
Fungicidal Activity Against Puccinia recondita f. Sp. Tritici/Wheat/Leaf Disc Preventative (Brown Rust)
Wheat leaf segments cv. Kanzler were placed on agar in multiwell plates (24-well format) and sprayed with the formulated test compound diluted in water. The leaf disks were inoculated with a spore suspension of the fungus 1 day after application. The inoculated leaf segments were incubated at 19° C. and 75% relative humidity (rh) under a light regime of 12 hours light/12 hours darkness in a climate cabinet and the activity of a compound was assessed as percent disease control compared to untreated when an appropriate level of disease damage appears in untreated check leaf segments (7 to 9 days after application).
The following compounds at 200 ppm in the applied formulation give at least 80% disease control in this test when compared to untreated control leaf disks under the same conditions, which show extensive disease development.

Structure (SMILES) | pest or weed control at 200 ppm
C#CCN(Cc1ccc(-c2noc(C(F)(F)F)n2)cc1)C(=O)Cc1ccccc1 [Compound 1.186, 2-phenyl-N-prop-2-ynyl-N-[[4-[5-(trifluoromethyl)-1,2,4-oxadiazol-3-yl]phenyl]methyl]-acetamide] | ≥ 80%
C#CCOC(=O)NC(C(=O)N(CC#C)Cc1ccc(-c2noc(C(F)(F)F)n2)cc1)C(C)C (stereo not drawn) [Compound 1.198, prop-2-ynyl N-[2-methyl-1-[prop-2-ynyl-[[4-[5-(trifluoromethyl)-1,2,4-oxadiazol-3-yl]phenyl]methyl]-carbamoyl]propyl]-carbamate] | ≥ 80%
O=C(Cc1ccc(Cl)cc1)N(Cc1ccc(-c2noc(C(F)(F)F)n2)cc1)CC1CC1 [Compound 1.234, 2-(4-chlorophenyl)-N-(cyclopropylmethyl)-N-[[4-[5-(trifluoromethyl)-1,2,4-oxadiazol-3-yl]phenyl]methyl]-acetamide] | ≥ 80%
COc1ccc(C2(C(=O)N(Cc3ccc(-c4noc(C(F)(F)F)n4)cc3)C3CC3)CC2)cc1 [Compound 1.143, N-cyclopropyl-1-(4-methoxyphenyl)-N-[[4-[5-(trifluoromethyl)-1,2,4-oxadiazol-3-yl]phenyl]methyl]-cyclopropane-carboxamide] | ≥ 80%
O=CNC1(C(=O)N(Cc2ccc(-c3noc(C(F)(F)F)n3)cc2)CC2CCCO2)CC1 (stereo not drawn) [Compound 1.441, 1-formamido-N-(tetrahydrofuran-2-ylmethyl)-N-[[4-[5-(trifluoromethyl)-1,2,4-oxadiazol-3-yl]phenyl]methyl]-cyclopropane-carboxamide] | ≥ 80%
O=C(Cc1ccc(C(F)(F)F)cc1)N(Cc1ccc(-c2noc(C(F)(F)F)n2)cc1)C1CC1 [Compound 1.140, N-cyclopropyl-N-[[4-[5-(trifluoromethyl)-1,2,4-oxadiazol-3-yl]phenyl]methyl]-2-[4-(trifluoromethyl)-phenyl]acetamide] | ≥ 80%
COCCN(Cc1ccc(-c2noc(C(F)(F)F)n2)cc1)C(=O)C1(NC=O)CC1 [Compound 1.354, 1-formamido-N-(2-methoxyethyl)-N-[[4-[5-(trifluoromethyl)-1,2,4-oxadiazol-3-yl]phenyl]methyl]-cyclopropane-carboxamide] | ≥ 80%
C#CCOC(C(=O)N(Cc1ccc(-c2noc(C(F)(F)F)n2)cc1)C1CC1)c1ccc(Cl)cc1 (stereo not drawn) [Compound 1.141, 2-(4-chlorophenyl)-N-cyclopropyl-2-prop-2-ynoxy-N-[[4-[5-(trifluoromethyl)-1,2,4-oxadiazol-3-yl]phenyl]methyl]-acetamide] | ≥ 80%
CC(=O)NCC(=O)N(Cc1ccc(-c2noc(C(F)(F)F)n2)cc1)OCc1ccc(Cl)cc1 [Compound 1.552, 2-ace tamido-N-[(4-chlorophenyl)-methoxy]-N-[[4-[5-(trifluoromethyl)-1,2,4-oxadiazol-3-yl]phenyl]methyl]-acetamide] | ≥ 80%
